This assay addresses T1, Human complement C1s enzyme (Homo sapiens, UniProt P09871).
T1 construct: purified from human serum, Complement Technology, Inc; purchased Complement Technology, Inc; host or cells: human serum (plasma-derived native protein)
T1 sequence (P09871 438-688 limits assumed): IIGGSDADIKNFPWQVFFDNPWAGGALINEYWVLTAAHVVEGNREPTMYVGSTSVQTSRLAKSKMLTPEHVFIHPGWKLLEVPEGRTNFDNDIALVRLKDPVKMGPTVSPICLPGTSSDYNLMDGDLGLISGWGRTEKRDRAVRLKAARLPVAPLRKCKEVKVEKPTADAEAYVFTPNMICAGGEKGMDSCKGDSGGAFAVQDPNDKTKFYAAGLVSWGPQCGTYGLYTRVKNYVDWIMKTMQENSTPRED
T1 sequence (P09871 16-437 partner limits assumed): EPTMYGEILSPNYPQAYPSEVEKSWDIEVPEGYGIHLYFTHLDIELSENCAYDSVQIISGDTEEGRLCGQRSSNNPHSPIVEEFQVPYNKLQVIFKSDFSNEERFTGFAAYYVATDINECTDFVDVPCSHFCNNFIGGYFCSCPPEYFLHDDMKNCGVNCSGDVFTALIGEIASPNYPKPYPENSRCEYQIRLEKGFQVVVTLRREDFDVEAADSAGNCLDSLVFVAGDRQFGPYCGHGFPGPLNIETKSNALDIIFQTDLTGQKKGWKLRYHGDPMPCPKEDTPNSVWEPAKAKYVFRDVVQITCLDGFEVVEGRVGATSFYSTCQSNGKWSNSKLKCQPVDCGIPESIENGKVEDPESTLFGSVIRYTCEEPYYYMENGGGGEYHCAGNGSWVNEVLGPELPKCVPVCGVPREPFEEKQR
Nature of the assay: Human C1s enzyme assay. The assay is classed as biochemical. Particulars: human complement C1s enzyme 1.16 nM, substrate Z-L-Lys-SBzl, A405; read-out: IC50 (Stars). In outline:
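Serum-purified human C1s (1.16 nM final) preincubated 5 min at room temperature with compound in 50 mM Tris, 1 M NaCl, pH 7.5. Z-L-Lys-SBzl and DTNB added at 100 μM each; A405 recorded every 30 s. IC50 from nonlinear regression of reaction rates versus compound concentration.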

The IC50 is the concentration at which inhibition is half-maximal.

For the molecule `Cc1cccc(-c2ncc(N[C@H](C)c3ccc4oc5ccccc5c4c3)c(=O)n2CC(=O)NCc2cc3cnccc3[nH]2)c1` [Compound 292, (R)-N-((1H-pyrrolo[3,2-c]pyr-idin-2-yl)methyl)-2-(5-((1-(dibenzo[b,d]furan-2-yl)ethyl)-amino)-6-oxo-2-(m-tolyl)pyr-imidin-1(6H)-yl)acetamide], the IC50 is below 100 nM.

In the case of `C[C@@H](Nc1cnc(-c2cccc(Cl)c2)n(CC(=O)NCc2cc3cnccc3[nH]2)c1=O)c1ccc2oc3ccccc3c2c1` [Compound 293, (R)-N-((1H-pyrrolo[3,2-c]pyr-idin-2-yl)methyl)-2-(2-(3-chlorophenyl)-5-((1-(dibenzo [b,d]furan-2-yl)ethyl)amino)-6-oxopyrimidin-1(6H)-yl)acet-amide], the half-inhibitory concentration (IC50) is below 100 nM.

Regarding `C[C@@H](Nc1cnc(-c2ccccc2)n(CC(=O)N[C@H](C)c2cc3cnccc3[nH]2)c1=O)c1ccc2oc3ccccc3c2c1` [Compound 294, N-((R)-1-(1H-pyrrolo[3,2-c]pyridin-2-yl)ethyl)-2-(5-(((R)-1-(dibenzo[b,d]furan-2-l)ethyl)-amino)-6-oxo-2-phenylpyrimi-din-1(6H)-yl)acetamide], the 50% inhibitory concentration (IC50) was in the range of 100 to 1000 nM.

Take `C[C@H](Nc1cnc(N2CCOCC2)n(CC(=O)NCc2cc3cnccc3[nH]2)c1=O)c1ccc2oc3ccccc3c2c1` [Compound 295, (S)-N-((1H-pyrrolo[3,2-c]pyr-idin-2-yl)methyl)-2-(5-((1-(dibenzo[b,d]furan-2-yl)ethyl)-amino)-2-morpholino-6-oxo-pyrimidin-1(6H)-yl)acetamide]: the IC50 is below 100 nM.

With `C[C@H](Nc1cnc(-c2ccc(S(F)(F)(F)(F)F)cc2)n(CC(=O)NCc2cc3cnccc3[nH]2)c1=O)c1ccc2oc3ccccc3c2c1` [Compound 296, (S)-N-((1H-pyrrolo[3,2-c]pyridin-2-yl)methyl)-2-(5-((1-(dibenzo[b,d]furan-2-yl)ethyl)-amino)-6-oxo-2-(4-(penta-fluoro-lambda6-sulfaneyl)-phenyl)pyrimidin-1(6H)-yl)-acetamide], the IC50 is below 100 nM.

`O=C(Cn1c(-c2ccc(S(F)(F)(F)(F)F)cc2)ncc(NCc2ccc3oc4ccccc4c3c2)c1=O)NCc1cc2cnccc2[nH]1` [Compound 297, N-((1H-pyrrolo[3,2-c]pyridin-2-yl)methyl)-2-(5-((dibenzo [b,d]furan-2-ylmethyl)amino)-6-oxo-2-(4-(pentafluoro-lambda6-sulfaneyl)phenyl)pyr-imidin-1(6H)-yl)acetamide]: the IC50 was below 100 nM.

As to `O=C(Cn1c(-c2ccc(S(F)(F)(F)(F)F)cc2)ncc(NCc2ccc(-c3ccccc3)cc2)c1=O)NCc1cc2cnccc2[nH]1` [Compound 298, N-((1H-pyrrolo[3,2-c]pyridin-2-yl)methyl)-2-(5-(([1,1′-biphenyl]-4-ylmethyl)amino)-6-oxo-2-(4-(pentafluoro-lambda6-sulfaneyl)phenyl)pyr-imidin-1(6H)-yl)acetamide], the IC50 is below 100 nM.

Take `C[C@H](Nc1nccn(CC(=O)NCc2cc3cnccc3[nH]2)c1=O)c1ccc2oc3ccccc3c2c1` [Compound 299, (S)—N-((1H-pyrrolo[3,2-c]pyridine-2-yl)methyl)-2-(3-((1-(dibenzo[b,d]furan-2-yl)ethyl)amino)-2-oxopyrazin-1(2H)-yl)acetamide]: the IC50 is below 100 nM.

In the case of `C[C@H](Nc1cnc(N2CCn3c(nnc3C(F)(F)F)C2)n(CC(=O)NCc2cc3cnccc3[nH]2)c1=O)c1ccc2oc3ccccc3c2c1` [Compound 300, (S)—N-((1H-pyrrolo[3,2-c]pyridine-2-yl)methyl)-2-(5-((1-(dibenzo[b,d]furan-2-yl)ethyl)amino)-6-oxo-2-(3-(trifluoromethyl)-5,6-dihydro-[1,2,4]triazolo[4,3-a]pyrazin-7(8H)-yl)pyrimidin-1(6H)-yl)acetamide], the IC50 was below 100 nM.

Turning to `O=C(Cn1c(N2CCn3c(nnc3C(F)(F)F)C2)ncc(NCCCc2ccccc2)c1=O)NCc1cc2cnccc2[nH]1` [Compound 301, N-((1H-pyrrolo[3,2-c]pyridin-2-yl)methyl)-2-(6-oxo-5-((3-phenylpropyl)amino)-2-(3-(trifluoromethyl)-5,6-dihydro-[1,2,4]triazolo[4,3-a]pyrazin-7(8H)-yl)pyrimidin-1(6H)-yl)-acetamide], the IC50 was below 100 nM.

With `N#Cc1c(NCCCc2ccccc2)ccc(-c2ccccc2)c1CC(=O)NCc1cc2cnccc2[nH]1` [Compound 302, N-((1H-pyrrolo[3,2-c]pyridine-2-yl)methyl)-2-(3-cyano-4-((3-phenylpropyl)amino)-[1,1′-biphenyl]-2-yl)acetamide], the IC50 was below 100 nM.

In the case of `O=C(Cn1c(-c2ccccc2)ncc(NCC2CCC(c3ccccc3)CC2)c1=O)NCc1cc2cnccc2[nH]1` (stereo not drawn) [Compound 303, N-((1H-pyrrolo[3,2-c]pyridine-2-yl)methyl)-2-(6-oxo-2-phenyl-5-(((4-phenylcyclohexyl)methyl)amino)pyrimidin-1(6H)-yl)acetamide], the IC50 is below 100 nM.

On to `C[C@@H]1CN(c2ncc(N[C@H](C)c3ccc4oc5ccccc5c4c3)c(=O)n2CC(=O)NCc2cc3cnccc3[nH]2)CCO1` [Compound 304, N-((1H-pyrrolo[3,2-c]pyridin-2-yl)methyl)-2-(5-(((R)-1-(dibenzo[b,d]furan-2-yl)ethyl)-amino)-2-((R)-2-methylmorph-olino)-6-oxopyrimidin-1(6H)-yl)acetamide], for which the IC50 fell in the range of 100 to 1000 nM.

As for `C[C@@H]1CN(c2ncc(N[C@H](C)c3ccc4oc5ccccc5c4c3)c(=O)n2CC(=O)NCc2cc3cnccc3[nH]2)C[C@H](C)O1` [Compound 305, N-((1H-pyrrolo[3,2-c]pyridin-2-yl)methyl)-2-(5-(((R)-1-(dibenzo[b,d]furan-2-yl)ethyl)-amino)-2-((2S,6R)-2,6-dimeth-ylmorpholino)-6-oxopyrimidin-1(6H)-yl)acetamide], the IC50 lay within 100 to 1000 nM.

Regarding `C[C@@H](Nc1cnc(N2C3CCC2COC3)n(CC(=O)NCc2cc3cnccc3[nH]2)c1=O)c1ccc2oc3ccccc3c2c1` [Compound 306, N-((1H-pyrrolo[3,2-c]pyridin-2-yl)methyl)-2-(2-(3-oxa-8-azabicyclo[3.2.1]octan-8-yl)-5-(((R)-1-(dibenzo[b,d]furan-2-yl)ethyl)amino)-6-oxopyrimi-din-1(6H)-yl)acetamide], the IC50 was 100 to 1000 nM.

As for `C[C@@H](Nc1cnc(-c2ccccc2)n(CC(=O)NCc2cc3cnccc3[nH]2)c1=O)c1ccc(-c2ccccc2F)cc1` [Compound 307, (R)-N-((1H-pyrrolo[3,2-c]pyridin-2-yl)methyl)-2-(5-((1-(2′-fluoro-[1,1′-biphenyl]-4-yl)ethyl)amino)-6-oxo-2-phen-ylpyrimidin-1(6H)-yl)acet-amide], the IC50 was below 100 nM.

`C[C@@H](Nc1cnc(-c2ccccc2F)n(CC(=O)NCc2cc3cnccc3[nH]2)c1=O)c1ccc(-c2ccccc2F)cc1` [Compound 308, (R)—N-((1H-pyrrolo[3,2-c]pyridine-2-yl)methyl)-2-(5-((1-(2′-fluoro-[1,1′-biphenyl]-4-yl)ethyl)amino)-2-(2-fluorophenyl)-6-oxopyrimidin-1(6H)-yl)acetamide]: the IC50 was below 100 nM.

As to `C[C@H](Nc1cnc(-c2ccccc2F)n(CC(=O)NCc2cc3cnccc3[nH]2)c1=O)c1ccc2c(c1)oc1ccccc12` [Compound 309, (S)-N-((1H-pyrrolo[3,2-c]pyridin-2-yl)methyl)-2-(5-((1-(dibenzo[b,d]furan-3-yl)ethyl)-amino)-2-(2-fluorophenyl)-6-oxopyrimidin-1(6H)-yl)acet-amide], the concentration for half-maximal inhibition (IC50) was below 100 nM.

Turning to `C[C@@H](Nc1cncn(CC(=O)NCc2cc3cnccc3[nH]2)c1=O)c1ccc2oc3ccccc3c2c1` [Compound 310, (R)-N-((1H-pyrrolo[3,2-c]pyridin-2-yl)methyl)-2-(5-((1-(dibenzo[b,d]furan-2-yl)ethyl)-amino)-6-oxopyrimidin-1(6H)-yl)acetamide], the IC50 is 100 to 1000 nM.

Regarding `CC(C)(Nc1cnc(-c2ccccc2F)n(CC(=O)NCc2cc3cnccc3[nH]2)c1=O)c1ccc2oc3ccccc3c2c1` [Compound 311, N-((1H-pyrrolo[3,2-c]pyridine-2-yl)methyl)-2-(5-((2-(dibenzo[b,d]furan-2-yl)propan-2-yl)amino)-2-(2-fluorophenyl)-6-oxopyrimidin-1(6H)-yl)acetamide], the IC50 was in the range of 100 to 1000 nM.

With `O=C(Cn1c(-c2cn[nH]c2)ncc(NCc2ccc3oc4ccccc4c3c2)c1=O)NCc1cc2cnccc2[nH]1` [Compound 312, N-((1H-pyrrolo[3,2-c]pyridine-2-yl)methyl)-2-(5-((dibenzo[b,d]furan-2-ylmethyl)amino)-6-oxo-2-(1H-pyrazol-4-yl)pyrimidin-1(6H)-yl)acetamide], the IC50 was below 100 nM.

The values are drawn from patent US20260184707A1, “PHARMACEUTICAL COMPOUNDS FOR THE TREATMENT OF COMPLEMENT MEDIATED DISORDERS” (ALEXION PHARMACEUTICALS, INC., priority 2022, published 2026).
